Like-named read-outs stand apart in the source and are kept apart here.

The test system of series [1] is female mice (NMRI strain). Nature of the series: animal or person. Conditions: for ED (100%): Mus musculus, 0.5 h; for ED (100%) / ED 100% (dose which increases the reaction time by 100%): 30 minutes after administration; for Q (enteral activity: quotient of ED 100% for intraperitoneal and oral administration): i.p. ED 100% / oral ED 100%, 30 min; for Maximum action, Δ% (increase in reaction time): maximum increase without fatalities. The series is classed as in vivo. The method, then: (§1) The model used for testing the analgesic action was the tail flick test of D'AMOUR and SMITH (J. Pharmacol. 72 (1941), 74-79). In this experiment, the compounds to be tested were administered intraperitoneally or orally, as aqueous solutions (injection volume 10 ml/kg) to groups of 10 female mice (NMRI strain) weighing 20-22 g each.
(§2) Pain reactions are caused before, and 30 minutes after, the administration of the compound, by means of thermal irritation (the tail being exposed to focused heat radiation from a halogen lamp for at most 30 seconds).
(§3) The time until the tail is drawn out of the radiation zone by reflex action is measured, and taken as the reaction time. Its average value, for 670 untreated animals, is 6.5±0.29 sec.
(§4) Analgesic substances increase the reaction time, to an extent depending on the dose. There is a linear relationship between the logarithms of the doses (mg/kg) and of the relative increase in reaction time (Δ%), from which the dose, defined as the ED 100%, which doubles the reaction time can be calculated by means of regression analysis. For a radiation exposure period of at most 30 seconds, the maximum possible increase in the reaction time is about 360%.

The nature of series [2]: acute lethal dose (LD 50) for intraperitoneal administration. The series is classed as in vivo. Conditions: for Relative toxicity: Nefopam = 1.00. From the text: The comparatively low toxicity of the novel compounds can also be deduced from the acute lethal dose (LD 50) for intraperitoneal administration (Table 2). The LD 50 values are from about 90% to 240% higher than those of Nefopam.

The nature of another series: in vivo. The series is classed as in vivo, mice (NMRI strain). Conditions: mouse, in vivo, read-out: treated animals killed. As to the method: as §1, §2, §3, §4
Setting [3] is: ip, read-out: ED 100% (dose which increases the reaction time by 100%), intraperitoneal administration.
Where [4] appears, read: po, read-out: ED 100% (dose which increases the reaction time by 100%), oral administration.
The mark [5] stands for this setting: intraperitoneal administration, Nefopam = 1.00.
Setting [6] is: intraperitoneal administration, dose of maximum action.
[7] abbreviates: oral administration, Nefopam = 1.00.
The mark [8] stands for this setting: oral administration, dose of maximum action.

Turning to `COc1cccc([C@@]23CCCC[C@@H]2CN(C)CCO3)c1` (relative stereo) [Example 3, 4-methyl-9a-(3-methoxyphenyl)-perhydro-1,4-benzoxazepine], the ED (100%) in series [1] (setting [3]) came out at 11.4 mg/kg; in series [1] (setting [4]), 17 mg/kg. In series [1], the “Q (enteral activity: quotient of ED 100% for intraperitoneal and oral administration)” value amounted to 0.67. Also, the relative activity was 0.71 in series [1] (setting [5]) and 2.73 in series [1] (setting [7]). Also, the “Maximum action, mg/kg (dose)” value was 46.4 mg/kg in series [1] (setting [6]) and 100 mg/kg in series [1] (setting [8]). The “Maximum action, Δ% (increase in reaction time)” value in series [1] (intraperitoneal administration) is recorded as 416%; in series [1] (oral administration) it was 397%. The same molecule gave a Relative toxicity in series [2] of 0.52. In series [2] (in vivo, ip, read-out: LD 50), the LD50 came to 110 mg/kg.
With `COc1cccc([C@@]23CCCC[C@@H]2CN(C)CCO3)c1` (single isomer, unassigned) [9 (+), (+)-4-Methyl-9a-(3-methoxyphenyl)-perhydro-1,4-benzoxazepine], the “Q (enteral activity: quotient of ED 100% for intraperitoneal and oral administration)” value in series [1] came to 0.71. In addition, the “ED 100% (dose which increases the reaction time by 100%)” value in series [1] (intraperitoneal administration) was found to be 16.7 mg/kg; in series [1] (oral administration), 23.5 mg/kg. The relative activity came out at 0.48 in series [1] (setting [5]) and 1.97 in series [1] (setting [7]). In addition, the figures for the “Maximum action, mg/kg (dose)” value in series [1] (setting [6]) and in series [1] (setting [8]) were 46.4 mg/kg and 100 mg/kg, respectively. The “Maximum action, Δ% (increase in reaction time)” value in series [1] (intraperitoneal administration) is 249%; in series [1] (oral administration), 370%. Also, the “LD50” value in series [2] is recorded as 110 mg/kg. In addition, in series [2], the Relative toxicity came out at 0.52.
In the case of `CN1CCOC(c2ccccc2)c2ccccc2C1` (centres unmarked) [Nefopam, 5-methyl-1-phenyl-3,4,5,6-tetrahydro-1H-benz[f]-2,5-oxazocine, reference compound], the mortality was 60% in “in vivo” (ip, 46.4 mg/kg administered intraperitoneally) and 60% in the series “in vivo” (po, 100 mg/kg administered orally). Further, the animals died in series [1] (46.4 mg/kg intraperitoneally) and in series [1] (100 mg/kg orally) was 6 out of 10 animals each time. In addition, the ED (100%) in series [1] (oral administration, read-out: ED 100% (dose which increases the reaction time by 100%)) was determined as 46.4 mg/kg; in series [1] (ip, intraperitoneal administration, read-out: ED 100% (dose which increases the reaction time by 100%)), 8.08 mg/kg. The “Q (enteral activity: quotient of ED 100% for intraperitoneal and oral administration)” value in series [1] came out at 0.17. Further, the figures for the “Maximum action, mg/kg (dose)” value in series [1] (setting [6]) and in series [1] (setting [8]) were 21.5 mg/kg and 46.4 mg/kg, respectively. Also, the “Maximum action, Δ% (increase in reaction time)” value in series [1] (intraperitoneal administration) was 192%; in series [1] (oral administration), 93%. This molecule showed a relative activity in series [1] (setting [7]) of 1.00. In series [2], this molecule registered a Relative toxicity of 1.00. Further, the LD50 in series [2] (in vivo, ip, read-out: LD 50) is 57.3 mg/kg.
With `COc1cccc([C@@]23CCC[C@@H]2CN(C)CCO3)c1` (relative stereo) [Example 6], the ED (100%) in series [1] (setting [3]) turned out to be 4.66 mg/kg; in series [1] (setting [4]), 9.49 mg/kg. The “Q (enteral activity: quotient of ED 100% for intraperitoneal and oral administration)” value in series [1] is given as 0.49. Moreover, the relative activity in series [1] (setting [5]) was found to be 1.73; in series [1] (setting [7]), 4.89. Besides, the “Maximum action, mg/kg (dose)” value in series [1] (setting [6]) and in series [1] (setting [8]) was 46.4 mg/kg each time. Moreover, the “Maximum action, Δ% (increase in reaction time)” value in series [1] (intraperitoneal administration) was found to be 380%; in series [1] (oral administration), 364%. In addition, in series [2], the Relative toxicity stood at 0.45. Moreover, the LD50 in series [2] (in vivo, ip, read-out: LD 50) was found to be 127 mg/kg.
As to `CN1CCO[C@]2(c3cccc(O)c3)CCCC[C@@H]2C1` (relative stereo) [Example 7, 4-Methyl-9a-(3-hydroxyphenyl)-perhydro-1,4-benzoxazepine], the ED (100%) in series [1] (setting [3]) was found to be 6.55 mg/kg; in series [1] (setting [4]), 18.6 mg/kg. The “Q (enteral activity: quotient of ED 100% for intraperitoneal and oral administration)” value in series [1] stood at 0.35. Further, the relative activity in series [1] (setting [5]) is given as 1.23; in series [1] (setting [7]), 2.50. Besides, the “Maximum action, mg/kg (dose)” value in series [1] (setting [6]) and in series [1] (setting [8]) was 46.4 mg/kg in each case. Further, the “Maximum action, Δ% (increase in reaction time)” value is 364% in series [1] (intraperitoneal administration) and 332% in series [1] (oral administration). For the same molecule, the Relative toxicity in series [2] is 0.35. Further, the LD50 in series [2] (in vivo, ip, read-out: LD 50) was determined as 165 mg/kg.
As for `COc1cccc([C@@]23CCCC[C@@H]2CN(C)CCO3)c1` (single isomer, unassigned) [9 (-), (-)-4-Methyl-9a-(3-methoxyphenyl)-perhydro-1,4-benzoxazepine], the ED (100%) in series [1] (setting [3]) was determined as 11 mg/kg; in series [1] (setting [4]), 17.6 mg/kg. Moreover, in series [1], the “Q (enteral activity: quotient of ED 100% for intraperitoneal and oral administration)” value was found to be 0.63. Further, the “Maximum action, Δ% (increase in reaction time)” value in series [1] (intraperitoneal administration) is 348%; in series [1] (oral administration) it was 397%. The “Maximum action, mg/kg (dose)” value in series [1] (mouse, in vivo, ip) is reported as 46.4 mg/kg; in series [1] (mouse, in vivo, po), 100 mg/kg. The relative activity in series [1] (mouse, in vivo, ip) amounted to 0.74; in series [1] (setting [7]), 2.64. Also, in series [2], the Relative toxicity was 0.40. Further, the LD50 in series [2] (in vivo, ip, read-out: LD 50) stood at 145 mg/kg.
Take `CC(=O)Oc1cccc([C@@]23CCCC[C@@H]2CN(C)CCO3)c1` (relative stereo) [Example 7 β, 4-Methyl-9a-(3-acetoxyphenyl)-perhydro-1,4-benzoxazepine]: the ED (100%) in series [1] (setting [3]) is 12.6 mg/kg; in series [1] (setting [4]) it was 13.1 mg/kg. Further, the “Q (enteral activity: quotient of ED 100% for intraperitoneal and oral administration)” value in series [1] came to 0.96. In addition, the “Maximum action, Δ% (increase in reaction time)” value in series [1] (intraperitoneal administration) worked out at 275%; in series [1] (oral administration), 280%. Also, the “Maximum action, mg/kg (dose)” value in series [1] (mouse, in vivo, ip) is given as 46.4 mg/kg; in series [1] (mouse, in vivo, po), 100 mg/kg. The relative activity in series [1] (mouse, in vivo, ip) was found to be 0.64; in series [1] (setting [7]), 3.54. The molecule also had a Relative toxicity in series [2] of 0.30. Besides, in series [2] (in vivo, ip, read-out: LD 50), the LD50 was found to be 194 mg/kg.

(Values after US4336263A, “1,4-Cycloalkano-oxazepines, salts thereof and analgesic uses thereof” (priority 1978, dated 1982).)
